Patent US9266870B2 (TAISHO PHARMACEUTICAL CO., LTD., priority 2012, dated 2016)
Like-named read-outs stand apart in the source and are kept apart here.

Key:
[1] = molecular target: human orexin-2 receptor (hOX2R) (Homo sapiens (Human), UniProt O43614); assay: Measurement of orexin antagonistic activity (intracellular Ca2+ fluorescence, FDSS), hOX2R; format: cell-based; details: CHO cells forcibly expressing hOX2R; ligand peptide (modified human orexin-A) 3 nM; maximum fluorescence intensity; read-out: IC50 Value OX2
Experimental: (§1) The antagonistic activities of the test compounds on human orexin-1 receptor (hOX1R) and orexin-2 receptor (hOX2R) were measured by modifying from the method described in literature (Toshikatsu Okumura et al., Biochemical and Biophysical Research Communications 280, 976-981, 2001). Chinese hamster ovary (CHO) cells forcibly expressing the hOX1R and hOX2R were seeded into a 96 well Black clear bottom plate (Nunc) at 20,000 cells per well, which were cultured in Ham's F-12 medium containing 0.1 mM MEM non-essential amino acids, 0.5 mg/ml G418, 10% fetal bovine serum (all by Invitrogen) for 16 hours under the conditions of 37° C., 5% CO2. After removing the medium, 100 μL of 0.5 μM Fluo-4AM ester (Dojin) in an assay buffer (25 mM HEPES (Dojin), Hank's balanced salt solution (Invitrogen), 0.1% bovine serum albumin, 2.5 mM probenecid, 200 μg/ml Amaranth (all by Sigma-Aldrich), pH 7.4) was added and the cells were incubated for 60 minutes at 37° C., 5% CO2. After removing the assay buffer containing […] ester, the test compound was dissolved in dimethyl sulfoxide to be 10 mM and diluted with the assay buffer, 150 μL of which was added and incubated for 30 minutes.
(§2) The reaction was measured for the fluorescence intensity of each well every second for 3 minutes using Functional Drug Screening System (FDSS; Hamamatsu Photonics K.K.), and the antagonistic activity was determined using the maximum fluorescence intensity as the indicator of intracellular Ca2+ concentration.

[2] = molecular target: human orexin-1 receptor (hOX1R) (Homo sapiens (Human), UniProt O43613); assay: Measurement of orexin antagonistic activity (intracellular Ca2+ fluorescence, FDSS), hOX1R; format: cell-based; details: ligand peptide (modified human orexin-A) 300 pM, maximum fluorescence intensity
Experimental: as §1, with “Chinese” for “The antagonistic activities of the test compounds on human orexin-1 receptor (hOX1R) and orexin-2 receptor (hOX2R) were measured by modifying from the method described in literature (Toshikatsu Okumura et al., Biochemical and Biophysical Research Communications 280, 976-981, 2001). Chinese”
as §2

[3] = CHO cells forcibly expressing hOX1R, read-out: IC50 Value OX1

Sequence of human orexin-1 receptor (hOX1R) (O43613 whole entry): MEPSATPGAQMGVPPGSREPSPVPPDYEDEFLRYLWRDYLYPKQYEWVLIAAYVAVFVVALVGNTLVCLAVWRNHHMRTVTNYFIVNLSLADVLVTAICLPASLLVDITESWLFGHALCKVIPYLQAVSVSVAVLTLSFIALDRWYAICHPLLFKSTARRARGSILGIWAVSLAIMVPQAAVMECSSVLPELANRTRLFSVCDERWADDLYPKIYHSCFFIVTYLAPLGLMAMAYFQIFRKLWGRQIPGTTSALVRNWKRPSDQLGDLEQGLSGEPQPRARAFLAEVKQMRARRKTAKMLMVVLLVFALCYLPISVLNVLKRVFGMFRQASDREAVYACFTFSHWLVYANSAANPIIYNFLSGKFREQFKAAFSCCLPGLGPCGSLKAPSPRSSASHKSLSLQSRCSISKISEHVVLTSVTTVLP
Sequence of human orexin-2 receptor (hOX2R) (O43614 whole entry): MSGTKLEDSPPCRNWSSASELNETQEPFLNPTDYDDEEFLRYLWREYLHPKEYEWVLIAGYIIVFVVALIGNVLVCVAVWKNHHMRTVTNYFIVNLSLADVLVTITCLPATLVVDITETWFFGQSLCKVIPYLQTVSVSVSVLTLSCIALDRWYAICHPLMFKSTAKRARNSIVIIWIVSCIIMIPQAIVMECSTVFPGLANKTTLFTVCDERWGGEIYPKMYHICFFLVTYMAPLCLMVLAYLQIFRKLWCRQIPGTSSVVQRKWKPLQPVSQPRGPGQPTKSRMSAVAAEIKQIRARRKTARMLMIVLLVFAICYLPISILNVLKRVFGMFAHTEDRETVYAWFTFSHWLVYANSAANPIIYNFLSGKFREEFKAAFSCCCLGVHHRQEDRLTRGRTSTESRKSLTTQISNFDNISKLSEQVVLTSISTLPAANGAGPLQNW

Structure (SMILES)	IC50 [1] [nM]	IC50 [2, 3] [nM]	IC50 ([2]; IC50 Value OX1, CHO cells forcibly expressing hOX1R) [nM]
O=C(c1ccccc1-n1nccn1)N1CCOC1Cn1ccc(-c2ccc(F)cn2)n1 (racemic) [Example 11, (±)-(2-{[3-(5-Fluoropyridin-2-yl)-1H-pyrazol-1-yl]methyl}-1,3-oxazolidin-3-yl)[2-(2H-1,2,3-triazol-2-yl)phenyl]methanone]	252	17.5	–
O=C(c1cc(F)ccc1-n1nccn1)N1CCOC1Cn1ccc(-c2ccc(F)cn2)n1 (racemic) [Example 12, (±)-(2-[[3-(5-fluoropyridin-2-yl)-1H-pyrazol-1-yl]methyl]-1,3-oxazolidin-3-yl) [5-fluoro-2-(2H-l,2,3-triazol-2-yl)phenyl]methanone]	171	–	–
Cc1ccc(-n2nccn2)c(C(=O)N2CCOC2Cn2ccc(-c3ccc(F)cn3)n2)n1 (racemic) [Example 13, (±)-(2-[[3-(5-fluoropyridin-2-yl)-1H-pyrazol-1-yl]methyl]-1,3-oxazolidin-3-yl) [6-methyl-3-(2H-l,2,3-triazol-2-yl)pyridin-2-yl] methanone]	251	121	–
O=C(c1cc(F)ccc1-c1ncccn1)N1CCOC1Cn1ccc(-c2ccc(F)cn2)n1 (racemic) [Example 16, (±)-(2-[[3-(5-fluoropyridin-2-yl)-1H-pyrazol-1-yl]methyl]-1,3-oxazolidin-3-yl) [5-fluoro-2-(pyrimidin-2-yl)phenyl]methanone]	71.7	28.9	–
Cc1ccc(-n2nccn2)c(C(=O)N2CCOC2Cn2ccc(-c3ccc(F)cc3)n2)c1 (racemic) [Example 17, (±)-(2-[[3-(4-fluorophenyl)-1H-pyrazol-1-yl]methyl]-1,3-oxazolidin-3-yl)[5-methyl-2-2H-1,2,3-triazol-2-yl) phenyl]methanone]	–	5.1	–
O=C(c1ccccc1-n1nccn1)N1CCOC1Cn1ccc(-c2ccc(F)cc2)n1 (racemic) [Example 18, (±)-(2-[[3-(4-fluorophenyl)-1H-pyrazol-1-yl]methyl]-1,3-oxazolidin-3-yl)[2-(2H-1,2,3-triazol-2-yl)phenyl] methanone]	192	26.4	–
O=C(c1cc(F)ccc1-n1nccn1)N1CCOC1Cn1ccc(-c2ccc(F)cc2)n1 (racemic) [Example 19, (±)-(2-[[3-(4-fluorophenyl)-1H-pyrazol-1-yl]methyl]-1,3-oxazolidin-3-yl)[5-fluoro-2-(2H-1,2,3-triazol-2-yl)phenyl]methanone]	233	76.8	–
Cc1ccc(-c2ncccn2)c(C(=O)N2CCOC2Cn2ccc(-c3ccc(F)cc3)n2)c1 (racemic) [Example 20, (±)-(2-[[3-(4-fluorophenyl)-1H-pyrazol-1-yl]methyl]-1,3-oxazolidin-3-yl)[5-methyl-2-(pyrimidin-2-yl)phenyl]methanone]	101	12.3	–
O=C(c1cc(F)ccc1-c1ncccn1)N1CCOC1Cn1ccc(-c2ccc(F)cc2)n1 (racemic) [Example 21]	234	30.2	–
Cc1ccc(-n2nccn2)c(C(=O)N2CCOC2Cn2cc(-c3ccc(F)cc3)cn2)n1 (racemic) [Example 23, (±)-(2-[[4-(4-fluorophenyl)-1H-pyrazol-1-yl]methyl]-1,3-oxazolidin-3-yl)[6-methyl-3-(2H-1,2,3-triazol-2-yl)pyridin-2-yl]methanone]	112	96.3	–
Cc1ccc(-c2ncccn2)c(C(=O)N2CCOC2Cn2cc(-c3ccc(F)cc3)cn2)c1 (racemic) [Example 24, (±)-(2-[[4-(4-fluorophenyl)-1H-pyrazol-1-yl]methyl]-1,3-oxazolidin-3-yl)[5-methyl-2-(pyrimidin-2-yl)phenyl]methanone]	26.7	–	–
Cc1ccc(-n2nccn2)c(C(=O)N2CCOC2Cn2ccc(-c3ccc(F)cn3)n2)c1 (single isomer, unassigned; (-)) [Example 1, (−)-(2-{[3-(5-Fluoropyridin-2-yl)-1H-pyrazol-1-yl]methyl}-1,3-oxazolidin-3-yl)[5-methyl-2-(2H-1,2,3-triazol-2-yl)phenyl]methanone]	–	4.9	–
Cc1ccc(-n2nccn2)c(C(=O)N2CCCOC2Cn2cc(-c3ccc(F)cn3)cn2)c1 (single isomer, unassigned; (-)) [Example 4, (−)-(2-[[4-(5-fluoropyridin-2-yl)-1H-pyrazol-1-yl]-methyl]-1,3-oxazinan-3-yl)[5-methyl-2-(2H-1,2,3-triazol-2-yl)phenyl] methanone]	–	9.6	–
Cc1ccc(-n2nccn2)c(C(=O)N2CCCOC2Cn2cc(-c3ccc(F)cc3)cn2)c1 (single isomer, unassigned; (-)) [Example 35, (−)-[2-[[4-(4-fluorophenyl)-1H-pyrazol-1-yl]methyl]-1,3-oxazinan-3-yl][5-methyl-2-(2H-1,2,3-triazol-2-yl)phenyl]methanone]	–	–	0.8
Cc1ccc(-n2nccn2)c(C(=O)N2CC(C)COC2Cn2cc(-c3ccc(F)cn3)cn2)c1 (single isomer, unassigned; (-)) [Example 40, (−)-[(2S*,5S*)-2-{[4-(5-Fluoropyridin-2-yl)-1H-pyrazol-1-yl]methyl}-5-methyl-1,3-oxazinan-3-yl][5-methyl-2-(2H-1,2,3-triazol-2-yl)phenyl]methanone]	–	8.3	–
Cc1ccc(-c2ncccn2)c(C(=O)N2CCCOC2Cn2cc(-c3ccc(F)cc3)cn2)c1 (single isomer, unassigned; (-)) [Example 43, (−)-[2-[[4-(4-fluorophenyl)-1H-pyrazol-1-yl]methyl]-1,3-oxazinan-3-yl][5-methyl-2-(pyrimidin-2-yl)phenyl]methanone]	–	2.6	–
O=C(c1cc(F)ccc1-c1ncccn1)N1CCCOC1Cc1cnn(-c2ccc(F)cn2)c1 (single isomer, unassigned; (-)) [Example 44, (−)-[2-[[1-(5-fluoropyridin-2-yl)-1H-pyrazol-4-yl]methyl]-1,3-oxazinan-3-yl] [5-fluoro-2-(pyrimidin-2-yl)phenyl]methanone]	–	60.4	–
Cc1ccc(-n2nccn2)c(C(=O)N2CCCOC2Cc2cnn(-c3ccc(F)cn3)c2)c1 (single isomer, unassigned; (-)) [Example 47, (−)-[2-{[1-(5-Fluoropyridin-2-yl)-1H-pyrazol-4-yl]methyl}-1,3-oxazinan-3-yl][5-methyl-2-(2H-1,2,3-triazol-2-yl)phenyl]methanone]	–	3.4	–
Cc1ccc(-n2nccn2)c(C(=O)N2CC(C)COC2Cn2cc(-c3ccc(F)cn3)cn2)c1 (single isomer, unassigned; (-)) [Example 49, (−)-[(2S*,5R*)-2-{[4-(5-Fluoropyridin-2-yl)-1H-pyrazol-1-yl]methyl}-5-methyl-1,3-oxazinan-3-yl][5-methyl-2-(2H-1,2,3-triazol-2-yl)phenyl]methanone]	–	0.8	–
Cc1ccc(-n2nccn2)c(C(=O)N2C[C@H](C)O[C@H]2Cn2cc(-c3ccc(F)cn3)cn2)c1 [Example 5, (−)-[(2S,5S)-2-{[4-(5-Fluoropyridin-2-yl)-1H-pyrazol-1-yl]methyl}-5-methyl-1,3-oxazolidin-3-yl][5-methyl-2-(2H-1,2,3-triazol-2-yl)phenyl]methanone]	–	86	–
Cc1ccc(-n2nccn2)c(C(=O)N2C[C@@H](C)O[C@H]2Cn2cc(-c3ccc(F)cn3)cn2)c1 [Example 6, (−)-[(2S,5R)-2-[[4-(5-fluoropyridin-2-yl)-1H-pyrazol-1-yl]methyl]-5-methyl-1,3-oxazolidin-3-yl] [5-methyl-2-(2H-1,2,3-triazol-2-yl)phenyl] methanone]	–	27.5	–
Cc1ccc(-n2nccn2)c(C(=O)N2[C@H](C)CO[C@H]2Cn2ccc(-c3ccc(F)cn3)n2)c1 [Example 7, [(2S,4R)-2-[[3-(5-fluoropyridin-2-yl)-1H-pyrazol-1-yl]-methyl]-4-methyl-1,3-oxazolidin-3-yl] [5-methyl-2-(2H-1,2,3-triazol-2-yl)phenyl] methanone]	–	7.2	–
Cc1ccc(-n2nccn2)c(C(=O)N2[C@H](Cn3ccc(-c4ccc(F)cn4)n3)OC[C@@H]2C)c1 [Example 9, (−)-[(2S,4S)-2-[[3-(5-fluoropyridin-2-yl)-1H-pyrazol-1-yl]-methyl]-4-methyl-1,3-oxazolidin-3-yl] [5-methyl-2-(2H-1,2,3-triazol-2-yl)phenyl] methanone]	–	23.4	–
